Consider 14 compounds from PMC8299157 (Antiviral Research, 2021).

For one data set, the target named is human N7-MTase RNMT-RAM (Homo sapiens, UniProt O43148). Description: Py-FLINT N7-MTase inhibition assay. It is filed as biochemical. The note with it: for IC50 Py-FLINT (RNMT-RAM): 2 μM Py-FLINT probe, 20 μM SAM, 20 nM RNMT-RAM.
The test system of another data set is SARS-CoV-2. It is filed as cell-based. The note with it: for EC50: read-out: EC50 Antiviral assay.
Another data set is described as follows: in vitro. The note with it: human.
The next data set concerns the target nsp14 (Severe acute respiratory syndrome coronavirus 2, UniProt P0DTD1). It is filed as binding, SARS-CoV-2. The note with it: 100 μM inhibitor; for Inhibitor type (targeted binding site): from both FA competition assays.
Data set [1] addresses SARS-CoV-2 nsp14 N7-MTase (Severe acute respiratory syndrome coronavirus 2, UniProt P0DTD1). Description: Py-FLINT N7-MTase inhibition assay. It is filed as biochemical.
A further data set concerns the target nsp14 N7-MTase (Severe acute respiratory syndrome coronavirus 2, UniProt P0DTD1). Description: RP HPLC inhibition study of Gp3A N7-methylation. The data set is classed as biochemical, SARS-CoV-2.

Where a name gives a salt, the structure may show the parent alone. Read-outs that look alike come from different tables or passages of the source. Some results are limits rather than exact numbers.

Chain of human N7-MTase RNMT-RAM (O43148 whole entry): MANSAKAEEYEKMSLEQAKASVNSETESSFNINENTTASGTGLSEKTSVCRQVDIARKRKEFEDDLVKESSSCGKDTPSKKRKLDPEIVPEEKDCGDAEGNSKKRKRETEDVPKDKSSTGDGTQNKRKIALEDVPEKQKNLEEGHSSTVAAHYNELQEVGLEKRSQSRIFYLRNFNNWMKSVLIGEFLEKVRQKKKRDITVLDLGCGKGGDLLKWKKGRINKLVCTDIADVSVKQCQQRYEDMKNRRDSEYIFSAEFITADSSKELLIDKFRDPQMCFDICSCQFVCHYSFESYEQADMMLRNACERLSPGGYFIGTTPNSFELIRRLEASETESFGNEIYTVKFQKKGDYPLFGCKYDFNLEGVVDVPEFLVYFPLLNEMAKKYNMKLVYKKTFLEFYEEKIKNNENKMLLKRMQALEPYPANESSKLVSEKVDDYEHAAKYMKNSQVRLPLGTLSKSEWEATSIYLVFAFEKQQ
Chain of human N7-MTase RNMT-RAM (Q9BTL3 whole entry partner): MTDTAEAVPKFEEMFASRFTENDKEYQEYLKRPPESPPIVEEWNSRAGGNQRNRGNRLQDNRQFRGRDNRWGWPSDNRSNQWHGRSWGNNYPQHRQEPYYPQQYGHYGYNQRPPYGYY

`O=c1c2ccccc2[se]n1-c1ccccc1` [FI6, Ebselen]: the half-inhibitory concentration (IC50) – broadly, the concentration needed to halve the response being measured – against human N7-MTase RNMT-RAM stood at 23.8 ± 1.3 µM.

On human N7-MTase RNMT-RAM, `Cc1cc(-c2ccc(/N=N/c3ccc4c(S(=O)(=O)O)cc(S(=O)(=O)O)c(N)c4c3O)c(C)c2)ccc1/N=N/c1ccc2c(S(=O)(=O)O)cc(S(=O)(=O)O)c(N)c2c1O` [FI7, Evans Blue] came in with an IC50 of 0.33 ± 0.05 µM. Further, in the data set with SARS-CoV-2 (Huh 7 cells), the “CC50/EC50 Selectivity index” value is on record as 1.15 ± 0.04. In addition, the EC50 – broadly, the concentration at which the effect is half-maximal – in the data set on SARS-CoV-2 was 31 ± 0.9 µM. In “in vitro”, this compound yielded a CC50 of 35.6 ± 1 µM.

Regarding `CC(=O)OC[C@H]1O[C@@H]([S-])[C@H](OC(C)=O)[C@@H](OC(C)=O)[C@@H]1OC(C)=O.CCP(CC)CC.[Au+]` [FI9, Auranofin], at human N7-MTase RNMT-RAM, the “IC50 Py-FLINT (RNMT-RAM)” value is recorded as “no human N7-MTase inhibition”. Further, the concentration for a half-maximal effect (EC50) in the data set with SARS-CoV-2 is over 100 µM. The “Inhibitor type (targeted binding site)” value on nsp14 was “bound by nsp14 within the nucleotide binding pocket”.

For the compound `Oc1c(Cl)cc(Cl)c(Cl)c1Cc1c(O)c(Cl)cc(Cl)c1Cl` [FI11, Hexachlorophene], the IC50 against human N7-MTase RNMT-RAM amounted to 8 ± 3.2 µM. In addition, the “CC50/EC50 Selectivity index” value in the data set on SARS-CoV-2 is on record as “not active”. Further, the “Inhibitor type (targeted binding site)” value on nsp14 is listed as “bound by nsp14 within the nucleotide binding pocket”.

As to `NCCOc1cc(C(=O)Nc2cc(OCCN)c3ccccc3n2)nc(C(=O)Nc2cc(OCCN)c3ccccc3n2)c1` [LI3, Pyridostatin xCF3COO^-], in data set [1] (compounds selected from LOPAC1280 library (Table S3)), the “p (Hill slope)” value stood at 18.1. Besides, the concentration for half-maximal inhibition (IC50) on human N7-MTase RNMT-RAM stood at 3.1 µM. For the same compound, the “CC50/EC50 Selectivity index” value with SARS-CoV-2 (Huh 7 cells) stood at 16.6 ± 6.1. Moreover, the half-maximal effective concentration (EC50) was 3.58 ± 0.16 µM in the data set on SARS-CoV-2 and under 50 µM in the data set on SARS-CoV-2 (listed as Pyridostatin). The “FA values in both binding assays and control sample” value on nsp14 is recorded as “high FA values in both assays as well as in the control sample”. On nsp14 N7-MTase, the “inhibition of m7Gp3A formation (RP HPLC)” value is listed as “lower potency”. In “in vitro”, the CC50 worked out at 59.3 ± 21.6 µM.

On human N7-MTase RNMT-RAM, `Nc1c(S(=O)(=O)O)cc(Nc2ccc(Nc3nc(Cl)nc(Nc4cccc(S(=O)(=O)O)c4)n3)c(S(=O)(=O)O)c2)c2c1C(=O)c1ccccc1C2=O` [LI4, Reactive Blue 2] returned a half-inhibitory concentration (IC50) of 1.5 ± 0.28 µM. For the same compound, the EC50 in the data set on SARS-CoV-2 is 16.3 ± 0.3 µM; in the data set on SARS-CoV-2 (listed as Reactive Blue 2) it was under 50 µM. The compound also registered a CC50 in the data set “in vitro” of 52.6 ± 10.2 µM.

At human N7-MTase RNMT-RAM, `O=C1c2c(O)ccc(O)c2C(=O)c2c(NCCNCCO)ccc(NCCNCCO)c21` [LI5, Mitoxantrone 2HCl] had a 50% inhibitory concentration (IC50) of 3.92 ± 0.21 µM. Besides, in the data set with SARS-CoV-2 (Huh 7 cells), the “CC50/EC50 Selectivity index” value is on record as “not active”. For the same compound, at nsp14, the “FA values in both binding assays and control sample” value is on record as “high FA values in both assays as well as in the control sample”. Besides, at nsp14 N7-MTase, the “inhibition of m7Gp3A formation (RP HPLC)” value is recorded as “lower potency”. This compound also gave a CC50 in the data set “in vitro” of under 0.04 µM.

In the case of `N.N.N.N.N.N.N.N.N.N.N.N.N.N.[Cl-].[Cl-].[Cl-].[Cl-].[Cl-].[Cl-].[O-2].[O-2].[Ru+3].[Ru+3].[Ru+4]` [LI6, Ruthenium red], the “inhibition of m7Gp3A formation (RP HPLC)” value on nsp14 N7-MTase is on record as “lower potency”.

In turn, `CC(C)N(CCC(=O)c1ccc2ccccc2c1)Cc1ccccc1` [LI7, ZM 39923 HCl] yielded an IC50 on human N7-MTase RNMT-RAM of 15.9 ± 3.3 µM. In addition, the “CC50/EC50 Selectivity index” value in the data set on SARS-CoV-2 (Huh 7 cells) is “not active”. In addition, on nsp14, the “Inhibitor type (targeted binding site)” value is given as “bound by nsp14 within the nucleotide binding pocket”. Besides, in “in vitro”, the CC50 stood at 12.2 ± 0.6 µM.

Take `O=c1c(O)c(-c2cc(O)c(O)c(O)c2)oc2cc(O)cc(O)c12` [LI8, Myricetin]: it took 3.57 ± 0.36 µM to reach half-maximal inhibition against human N7-MTase RNMT-RAM (IC50). The compound further displayed a CC50 in “in vitro” of 41.6 ± 7.1 µM.

As for `COC(=O)c1c(NC(=O)c2cc3ccccc3o2)sc(C)c1C` [OI1, Methyl 2-[(1-benzofuran-2-ylcarbonyl)amino]-4,5-dimethylthiophene-3-carboxylate], at human N7-MTase RNMT-RAM, the IC50 was over 100 µM and the “IC50 Py-FLINT (RNMT-RAM)” value is “no human N7-MTase inhibition”. Further, the “CC50/EC50 Selectivity index” value with SARS-CoV-2 (Huh 7 cells) is “not active”. In addition, at nsp14, the “Inhibitor type (targeted binding site)” value is listed as “bound by nsp14 within the nucleotide binding pocket”. Also, the CC50 in the data set “in vitro” was over 100 µM.

With `Clc1cccc(/C=C/c2nn3c(-c4ccco4)nnc3s2)c1` [OI2, (E)-6-(3-Chlorostyryl)-3-(furan-2-yl)-[1,2,4]triazolo[3,4-b][1,3,4]thiadiazole], at human N7-MTase RNMT-RAM, the IC50 is over 100 µM and the “IC50 Py-FLINT (RNMT-RAM)” value is recorded as “no human N7-MTase inhibition”. Moreover, in the data set with SARS-CoV-2 (Huh 7 cells), the “CC50/EC50 Selectivity index” value is “not active”. Besides, at nsp14, the “Inhibitor type (targeted binding site)” value was “bound by nsp14 within the nucleotide binding pocket”. Further, the CC50 in “in vitro” came to 71.3 ± 5.9 µM.

With `Nc1ncnc2c1ncn2[C@@H]1O[C@H](C[C@@H](N)CC[C@H](N)C(=O)O)[C@@H](O)[C@H]1O` [Sinefungin], the half-inhibitory concentration (IC50) on human N7-MTase RNMT-RAM was found to be 0.22 ± 0.02 µM. The compound further registered a CC50 in “in vitro” of over 100 µM.

For `O=c1cc(-c2ccccc2)oc2cc(O)c(O)c(O)c12` [baicalein], the “inhibition of reaction progress in library screening” value in data set [1] (50 μM library compound) is listed as “did not observe such activity”.
